# Measurements published in ChEMBL document CHEMBL3526158, “Contributions of arylacetamide deacetylase and carboxylesterase 2 to flutamide hydrolysis in human liver” (Drug Metab Dispos, 2012).
# What was measured:
# Cocaine esterase [1] = biological target: T1, Cocaine esterase (Homo sapiens, UniProt O00748); experiment: Drug metabolism assessed as CES2-mediated compound hydrolysis in human liver homogenates at 5 to 200 uM; type: ADME, tissue-based; conditions: tissue homogenate
# T1 sequence (O00748 whole entry): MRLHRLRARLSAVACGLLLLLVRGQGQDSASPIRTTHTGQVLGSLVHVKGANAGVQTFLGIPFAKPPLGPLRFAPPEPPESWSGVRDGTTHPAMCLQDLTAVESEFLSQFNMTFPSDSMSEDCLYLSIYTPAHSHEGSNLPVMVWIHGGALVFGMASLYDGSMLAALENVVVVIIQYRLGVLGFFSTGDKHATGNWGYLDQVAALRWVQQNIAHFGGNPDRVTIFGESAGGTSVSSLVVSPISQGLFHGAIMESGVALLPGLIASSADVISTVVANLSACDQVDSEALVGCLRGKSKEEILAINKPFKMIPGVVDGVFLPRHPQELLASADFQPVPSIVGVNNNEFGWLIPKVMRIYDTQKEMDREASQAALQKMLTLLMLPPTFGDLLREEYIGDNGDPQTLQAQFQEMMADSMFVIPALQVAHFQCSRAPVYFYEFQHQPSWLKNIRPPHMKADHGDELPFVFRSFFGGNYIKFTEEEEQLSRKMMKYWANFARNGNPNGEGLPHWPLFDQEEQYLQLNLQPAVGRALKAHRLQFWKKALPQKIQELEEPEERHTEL
# Cocaine esterase [2] = biological target: T1, Cocaine esterase; experiment: Drug metabolism assessed as human recombinant CES2-mediated compound hydrolysis at 200 uM; type: ADME; conditions: recombinant enzyme
# Cocaine esterase [3] = biological target: T1, Cocaine esterase; experiment: Drug metabolism assessed as loperamide-mediated inhibition of CES2-mediated compound hydrolysis in human liver cytosol at 5 uM relative to control; type: ADME, tissue-based; design: scale not given: the % may be the effect or the level left
# Cocaine esterase [4] = biological target: T1, Cocaine esterase; experiment: Intrinsic clearance assessed as ratio of Vmax to Km for human recombinant CES2; type: ADME; conditions: recombinant enzyme
# Liver carboxylesterase 1 = biological target: T2, Liver carboxylesterase 1 (Homo sapiens, UniProt P23141); experiment: Drug metabolism assessed as human recombinant CES1-mediated compound hydrolysis at 5 uM; type: ADME; conditions: recombinant enzyme
# T2 sequence (P23141 whole entry): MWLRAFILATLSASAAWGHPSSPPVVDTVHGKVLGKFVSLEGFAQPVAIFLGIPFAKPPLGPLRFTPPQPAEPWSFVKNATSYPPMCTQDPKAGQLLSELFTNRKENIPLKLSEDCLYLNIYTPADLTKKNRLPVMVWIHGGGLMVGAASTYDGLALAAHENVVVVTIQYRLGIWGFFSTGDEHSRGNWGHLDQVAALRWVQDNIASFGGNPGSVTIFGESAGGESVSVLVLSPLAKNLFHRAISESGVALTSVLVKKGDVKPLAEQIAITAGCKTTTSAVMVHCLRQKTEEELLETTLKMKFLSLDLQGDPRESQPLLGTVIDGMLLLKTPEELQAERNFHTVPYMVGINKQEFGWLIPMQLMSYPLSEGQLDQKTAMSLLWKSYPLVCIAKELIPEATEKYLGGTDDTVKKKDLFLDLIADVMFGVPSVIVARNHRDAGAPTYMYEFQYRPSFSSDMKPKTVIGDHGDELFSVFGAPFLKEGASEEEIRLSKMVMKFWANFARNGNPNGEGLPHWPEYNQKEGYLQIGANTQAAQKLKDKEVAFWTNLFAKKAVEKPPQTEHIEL
# [5] = biological target: T3, AADAC (arylacetamide deacetylase) (Homo sapiens, UniProt P22760); experiment: Drug metabolism assessed as AADAC-mediated compound hydrolysis in human liver homogenates at 5 to 200 uM; type: ADME, tissue-based; conditions: read-out: Drug metabolism
# T3 sequence (P22760 whole entry): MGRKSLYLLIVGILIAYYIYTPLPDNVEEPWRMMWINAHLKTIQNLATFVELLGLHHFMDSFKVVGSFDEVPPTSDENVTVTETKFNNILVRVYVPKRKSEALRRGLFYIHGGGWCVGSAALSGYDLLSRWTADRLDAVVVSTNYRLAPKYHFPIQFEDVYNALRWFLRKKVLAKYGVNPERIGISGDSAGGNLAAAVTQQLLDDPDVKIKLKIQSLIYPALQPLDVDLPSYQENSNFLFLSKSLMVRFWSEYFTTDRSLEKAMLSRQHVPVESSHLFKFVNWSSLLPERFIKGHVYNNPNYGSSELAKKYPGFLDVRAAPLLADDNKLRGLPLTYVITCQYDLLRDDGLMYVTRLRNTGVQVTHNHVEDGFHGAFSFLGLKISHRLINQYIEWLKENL
# CES2 (cocaine esterase) [6] = biological target: T4, CES2 (cocaine esterase) (Homo sapiens, UniProt O00748); experiment: Drug metabolism assessed as CES2-mediated compound hydrolysis in human liver homogenates at 200 uM; type: ADME, tissue-based; conditions: read-out: Drug metabolism
# T4 sequence (O00748 whole entry): T1 sequence (O00748 whole entry)
# [7] = biological target: T5, Arylacetamide deacetylase (Homo sapiens, UniProt P22760); experiment: Drug metabolism assessed as human recombinant AADAC-mediated compound hydrolysis expressed in SF21 cells at 50 uM; type: ADME; conditions: sf21, 50 µM
# T5 sequence (P22760 whole entry): T3 sequence (P22760 whole entry)
# [8] = biological target: T3, AADAC (arylacetamide deacetylase); experiment: Drug metabolism assessed as loperamide-mediated inhibition of human recombinant AADAC-mediated compound hydrolysis expressed in SF21 cells measured as enzyme activity at 5 uM relative to control; type: ADME; design: scale not given: the % may be the effect or the level left; conditions: with loperamide (concentration not clearly stated), read-out: Activity
# [9] = biological target: T3, AADAC (arylacetamide deacetylase); experiment: Drug metabolism assessed as AADAC-mediated compound hydrolysis in human liver homogenates at 5 uM; type: ADME, tissue-based; conditions: read-out: Drug metabolism
# CES2 (cocaine esterase) [10] = biological target: T4, CES2 (cocaine esterase); experiment: Drug metabolism assessed as loperamide-mediated inhibition of human recombinant CES2-mediated compound hydrolysis measured as enzyme activity at 5 uM relative to control; type: ADME; design: scale not given: the % may be the effect or the level left; conditions: recombinant CES2, with loperamide (concentration not clearly stated), read-out: Activity
# CES2 (cocaine esterase) [11] = biological target: T4, CES2 (cocaine esterase); experiment: Drug metabolism assessed as CES2-mediated compound hydrolysis in human liver homogenates at 50 uM; type: ADME, tissue-based; conditions: read-out: Drug metabolism
# [12] = biological target: T5, Arylacetamide deacetylase; experiment: Drug metabolism assessed as human recombinant AADAC-mediated compound hydrolysis at 200 uM; type: ADME
# Cocaine esterase [13] = biological target: T1, Cocaine esterase; experiment: Inhibition of human recombinant CES2 assessed as compound hydrolysis
# CES2 (cocaine esterase) [14] = biological target: T4, CES2 (cocaine esterase); experiment: Drug metabolism assessed as CES2-mediated compound hydrolysis in human liver homogenates at 5 uM; type: ADME, tissue-based; conditions: read-out: Drug metabolism
# [15] = biological target: T3, AADAC (arylacetamide deacetylase); experiment: Drug metabolism assessed as AADAC-mediated compound hydrolysis in human liver homogenates at 200 uM; type: ADME, tissue-based; conditions: read-out: Drug metabolism
# [16] = biological target: T5, Arylacetamide deacetylase; experiment: Drug metabolism assessed as human recombinant AADAC-mediated compound hydrolysis at 5 uM; type: ADME
# Cocaine esterase [17] = biological target: T1, Cocaine esterase; experiment: Drug metabolism assessed as human recombinant CES2-mediated compound hydrolysis at 5 uM; type: ADME; conditions: recombinant enzyme
# Cocaine esterase [18] = biological target: T1, Cocaine esterase; experiment: Drug metabolism assessed as human recombinant CES2-mediated compound hydrolysis at 50 uM; type: ADME; conditions: recombinant enzyme
# Cocaine esterase [19] = biological target: T1, Cocaine esterase; experiment: Drug metabolism assessed as loperamide-mediated inhibition of CES2-mediated compound hydrolysis in human liver microsomes at 5 uM relative to control; type: ADME; design: scale not given: the % may be the effect or the level left
# Cocaine esterase [20] = biological target: T1, Cocaine esterase; experiment: Drug metabolism assessed as loperamide-mediated inhibition of CES2-mediated compound hydrolysis in human jejunum microsomes at 5 uM relative to control; type: ADME; design: scale not given: the % may be the effect or the level left
# [21] = biological target: T3, AADAC (arylacetamide deacetylase); experiment: Drug metabolism assessed as AADAC-mediated compound hydrolysis in human liver homogenates at 50 uM; type: ADME, tissue-based; conditions: read-out: Drug metabolism
# Cocaine esterase [22] = biological target: T1, Cocaine esterase; experiment: Drug metabolism assessed as human recombinant CES2-mediated compound hydrolysis at 2 uM; type: ADME; conditions: recombinant enzyme
structure (smiles),measurement,setting,value
CC(C)C(=O)Nc1ccc([N+](=O)[O-])c(C(F)(F)F)c1 [FLUTAMIDE],Drug metabolism,Cocaine esterase [1],170.4%
same,Drug metabolism,Cocaine esterase [2],13.5 pmol/min/mg
same,Activity,Cocaine esterase [3],15.7%
same,Ratio,Cocaine esterase [4],4.2 µL/min/mg
same,Drug metabolism,Liver carboxylesterase 1,metabolite_not_detected
same,metabolised at up to 200 µM,[5],79.6%
same,metabolised at 200 µM,CES2 (cocaine esterase) [6],10.6%
same,Drug metabolism,[7],87.6 pmol/min/mg
same,activity at 5 µM,[8],74.7%
same,metabolised at 5 µM,[9],11.7%
same,activity at 5 µM,CES2 (cocaine esterase) [10],7.7%
same,metabolised at 50 µM,CES2 (cocaine esterase) [11],47%
same,Drug metabolism,[12],389 pmol/min/mg
same,Ki,Cocaine esterase [13],2300 nM
same,metabolised at 5 µM,CES2 (cocaine esterase) [14],88.3%
same,metabolised at 200 µM,[15],89.4%
same,Drug metabolism,[16],3.1 pmol/min/mg
same,Drug metabolism,Cocaine esterase [17],16 pmol/min/mg
same,Drug metabolism,Cocaine esterase [18],38.9 pmol/min/mg
same,Activity,Cocaine esterase [19],22.9%
same,Activity,Cocaine esterase [20],18.6%
same,metabolised at 50 µM,[21],53%
CO[C@H]1/C=C/O[C@@]2(C)Oc3c(C)c(O)c4c(O)c(c(/C=N/N5CCN(C)CC5)c(O)c4c3C2=O)NC(=O)/C(C)=C\C=C\[C@H](C)[C@H](O)[C@@H](C)[C@@H](O)[C@@H](C)[C@H](OC(C)=O)[C@@H]1C [RIFAMPIN],Drug metabolism,Cocaine esterase [22],2.99 pmol/min/mg
same,Drug metabolism,[7],41.77 pmol/min/mg
